Test results published in patent publication US20230039711A1, “AHR INHIBITORS AND USES THEREOF” (Ikena Oncology, Inc., priority 2020, published 2023).

Experiments:
[1] = Nonclinical safety, single-dose and repeated-dose toxicological studies in rodent and non-rodent species; format: in vivo; settings: species not specified for these findings
[2] = Nonclinical safety studies incl. 28-day GLP study in monkeys; format: in vivo, monkey
[3] = test system: human T cell; test: Human T cell assays; format: cell-based
[4] = Nonclinical safety studies incl. 28-day GLP study in rat; format: in vivo; settings: rats
[5] = test system: other receptors, transporters, and kinases; test: Selectivity for AHR over other receptors, transporters, and kinases
[6] = Monotherapy dosing in human patients, safety; format: in vivo; settings: 200 mg, 400 mg, 800 mg, and 1200 mg once daily (QD)
[7] = biological target: T1, AHR (Homo sapiens, UniProt P35869); test: AHR translocation from cytoplasm to nucleus in the presence of a ligand, and downstream signaling in in vivo tumor models
T1 construct: host or cells: in vivo tumor models (not specified)
T1 sequence (P35869 11-848): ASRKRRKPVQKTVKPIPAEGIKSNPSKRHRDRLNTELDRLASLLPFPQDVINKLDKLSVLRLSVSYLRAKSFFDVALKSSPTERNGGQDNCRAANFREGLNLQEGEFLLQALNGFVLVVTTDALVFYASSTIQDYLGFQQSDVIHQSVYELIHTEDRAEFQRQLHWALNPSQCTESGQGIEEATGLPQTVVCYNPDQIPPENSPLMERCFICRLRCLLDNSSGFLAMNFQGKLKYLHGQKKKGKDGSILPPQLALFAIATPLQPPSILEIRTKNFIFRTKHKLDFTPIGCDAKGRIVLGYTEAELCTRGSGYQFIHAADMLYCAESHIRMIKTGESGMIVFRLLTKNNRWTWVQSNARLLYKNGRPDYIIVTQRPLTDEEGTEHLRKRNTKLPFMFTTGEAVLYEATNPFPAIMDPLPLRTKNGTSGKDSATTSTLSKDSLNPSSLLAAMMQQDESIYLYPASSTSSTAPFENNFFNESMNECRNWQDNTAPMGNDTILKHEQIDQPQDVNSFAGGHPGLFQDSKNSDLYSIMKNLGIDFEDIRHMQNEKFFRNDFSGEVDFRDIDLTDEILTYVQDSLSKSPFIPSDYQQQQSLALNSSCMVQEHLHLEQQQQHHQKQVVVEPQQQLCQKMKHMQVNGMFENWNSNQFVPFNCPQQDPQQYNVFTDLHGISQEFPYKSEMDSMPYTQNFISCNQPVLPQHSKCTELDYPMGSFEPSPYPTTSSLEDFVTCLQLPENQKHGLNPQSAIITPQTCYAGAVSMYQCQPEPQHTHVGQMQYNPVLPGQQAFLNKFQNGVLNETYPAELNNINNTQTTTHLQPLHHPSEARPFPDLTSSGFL

- CYP1A1 gene expression [3]: inhibits
- selectivity for AHR over other receptors, transporters, and kinases [5]: highly selective for AHR
- AHR translocating from the cytoplasm to the nucleus and downstream signaling [7]: effectively blocks
Structure (SMILES): CC(C)c1cnn2c(N[C@@H]3CCc4[nH]c5ccccc5c4C3)nc(-c3cncc(F)c3)nc12 [Compound A, (R)-N-(2-(5-fluoropyridin-3-yl)-8-isopropylpyrazolo[1,5-a][1,3,5]triazin-4-yl)-2,3,4,9-tetrahydro-1H-carbazol-3-amine]
- noteworthy findings of potential relevance to humans (general) [1]: emesis, loose stool, dehydration, body weight loss
- thymus weights and cortical lymphocytes ([2]; monkey): decreased
- QTc prolongation ([2]; monkeys): up to 11%
- T cell state [3]: induces an activated T cell state
- interleukin (IL)-22 gene expression [3]: inhibits
- pro-inflammatory cytokine IL-2 [3]: increase
- pro-inflammatory cytokine IL-9 [3]: increase
- stomach findings [4]: nonglandular stomach ulceration and edema
- testicular findings ([4]; not resolved after 2 weeks of dosing cessation): seminiferous tubule degeneration and debris in the epididymis lumen
- serious adverse events (SAEs) [6]: no serious adverse events
